The data set concerns dairy cows. As to the kind of experiment: In vivo protection and transfer of t10c12-CLA to milk, milk fat content. The conditions noted are these: 7 g per cow daily; FIG. 9. The method, then:
Eight dairy cows in mid-lactation (100 to 220 days in milk, 562 to 712 kg live weight, minimum daily production of 20 to 25 kg milk) were used in a sequential set-up to test the in vivo protection of fatty acids and transfer to the milk. Two supplements were tested: First, a protected fatty acid emulsion, prepared according to Example 1, was administered (n=4). This product consisted of a protein extract from potato tuber peels, which was further used to emulsify a commercially available triacylglyceride mixture of cis-9, trans-11 and trans-10, cis-12 conjugated linoleic acid (t10c12-CLA) (TONALIN® TG80, BASF-AG, Ludwigshafen, Germany) and protected against rumen degradation through the creation of protein-phenol complexes by addition of 4-methylcatechol. The degree of rumen bypass of t10c12 CLA was assessed in vitro as described in Example 1 before the start of the in vivo trial. […]
The experimental period consisted of six weeks. […] Milk fat content was determined by Fourier Transform Infrared analysis (FTIR Delta Instruments, Drachten, The Netherlands) and fatty acids determined as described by Jorjong et al.^(19) Milk fat is presented as percentage of the total mass of milk produced per day and t10c12-CLA as g per 100 g of fatty acids detected.

In the case of `CCCCC/C=C\C=C\CCCCCCCCC(=O)O` [t10c12-CLA, trans-10, cis-12 conjugated linoleic acid], the “transfer of dietary t10c12-CLA to the milk” value is on record as “up to 5%”.

The values are drawn from US20160316791A1, “METHOD TO PROTECT LIPOPHILIC NUTRIENTS AGAINST RUMINAL DEGRADATION” (UNIVERSITEIT GENT, priority 2013, published 2016).
